Entries after “also recorded” stand apart in the source; their conditions may differ.
What was measured:
[1] = target: T1, BACE1 (Homo sapiens, UniProt P56817); assay: cell-based BACE1 assay (sAPPβ modified ELISA) in SY5Y-BACEGFP-SEAPAPPwt cells; conditions: for IC50: 8-point dose-response (30-0.01 μM)
T1 construct: GFP; expressed in transfected cells; host or cells: SY5Y cells (SY5Y-BACEGFP-SEAPAPPwt), stably transfected
Description: FIG. 8 depicts a sAPPβ assay utilized to identify inhibitors of BACE1. The assay utilizes SY5Y cells stably overexpressing BACE-GFP and SEAP-APPwt. Cells are incubated with a candidate compound for 6 hours prior to harvesting media. BACE1-mediated cleavage of APP results in the release of sAPPβ into the media. α-secretase, a competing enzyme that is non-amyloidogenic, also cleaves APP to release […]. Using an sAPPβ-specific antibody (sβwt), SEAP-sAPPβ is specifically captured in a modified ELISA assay. Detection is achieved by addition of the fluorescent alkaline phosphatase substrate, 4-methylumbelliferyl phosphate (4-MUP).
FIG. 10A-B depicts SAR studies of N-(quinolin-8-yl)benzenesulfonamides. 28 full and partial hits, shown in (A) for compounds 1-26 and (B) for compounds 27 and 28, from the targeted screen of N-(quinolin-8-yl)benzenesulfonamides were characterized in SY5Y-BACEGFP-SEAPAPPwt cells using the cell-based BACE1 assay. All compounds were tested at 8 concentrations (30, 10, 3, 1, 0.3, 0.1, 0.03, and 0.01 μM), and data points were analyzed with Origin software and fitted using a logistic model for IC50 determination.
A cell-based modified ELISA assay for measuring sAPPβ, the secreted ectodomain of β-amyloid precursor protein (APP) following […] (BACE1) cleavage, was used to identify a class of compounds that interfered with the first step of sAPPβ generation. This assay has been described in International Application PCT/US2007/015938 (Published as International Publication No. WO 08/008,463), which is herein incorporated in its entirety for all purposes.
The SY5Y-BACEGFP-SEAPAPPwt cell based assay was developed to discover novel small molecule modulators of BACE1 activity. SY5Y cells were stably transfected with GFP-tagged BACE1 (BACE-GFP) and secreted alkaline phosphatase (SEAP)-tagged wildtype APP (SEAP-APPwt). BACE1 cleavage of SEAP-APPwt results in secretion into the media of SEAP-tagged sAPPβ, which is collected and specifically captured using an sAPPβ cleavage site-specific antibody (sβwt). After washing, the fluorescent alkaline phosphatase substrate 4-methylumbelliferyl phosphate (4-MUP) is used to detect the captured SEAP-sAPPβ (FIG. 8).
176 compounds were tested in the primary screen (FIG. 9). Briefly, each compound (10 mM stock in DMSO) was diluted 1:25 in DMSO and loaded onto 96-well plates to generate a 400 μM stock plate. 1 μl of each compound was then diluted 1:200 with cell culture media (0.5% DMSO concentration) in two separate 96-well plates for a final screening concentration of 2 μM. 150 μl of media containing compound was then transferred onto SY5Y-BACEGFP-SEAPAPPwt cells in 96-well format, and the BACE1 assay was performed as described previously. The primary screen was conducted in duplicate. A parallel screen was conducted at 10 μM concentration, also in duplicate. […] Percent inhibition of the fluorescence signal was calculated as 100×[DMSO control−compound]/DMSO control The majority of data points were clustered between −25% and 25% inhibition of sAPPβ fluorescence signal (FIG. 9A). The Z′ factors for all 4 96-well plates used in the primary screen were above 0.7 (data not shown). The threshold for hit selection was set at 3 standard deviations, or 59.76% inhibition, yielding 6 small molecule hits and a hit rate of 3.41% (FIG. 9B).
28 full and partial hits were characterized in 8-point dose-response experiments for IC50 determination in SY5Y-BACEGFP-SEAPAPPwt cells (FIG. 10).

[2] = tested on: Aβ40; assay: Aβ40 / sAPPβ levels in Lenti-APPsw infected primary cortical neurons; format: cell-based, mouse
Description: FIG. 11A-B depicts Lentiviral-mediated transduction of APPsw in primary neurons. Primary cortical neurons were harvested from wild-type P0 mice and cultured according to established protocols. Lentivirus harboring human Swedish mutant APP (Lenti-APPsw) was packaged using ViraPower Lentiviral Packaging mix (Invitrogen) according to the manufacturer's protocol. DIV-14 neurons were incubated for 24 hours with primary culture media containing the indicated volume (in μl) of virus (LV-1 and LV-2 denote 2 separate batches of virus, 0 denotes no virus was used). After infection, neurons were incubated for 72 hours with primary culture media. Media was collected for Aβ40 ELISA (Bio Source), and cell lysates were probed with APPCT antibody to visualize transduced full-length APP. (A) Bar graph depicting results; (B) Assay results.
FIG. 13A-B depicts the effect of CU-264 on Aβ expressing primary cortical neuron cultures from wild-type mice transformed with lentivirus harboring APPsw. […] At 10 μm, CU-264 increased Aβ levels. (A) Bar graph depicting results; (B) Assay results.
The previously described hit was further analyzed in physiologically relevant systems, e.g. primary neurons and Alzheimer's model mice. Two complementary neuronal cell systems were employed to test the effects of candidate compounds on various aspects of APP processing: cultured mouse cortical neurons (postnatal day 0) infected with recombinant lentivirus carrying human APPsw (Lenti-APPsw; FIG. 11); and cultured cortical neurons prepared from Tg2576 mice (carrying human APPsw transgene under the control of the PrP promoter). Lenti-APPsw infected cortical neurons can be prepared in a relatively large scale, but suffer from variability in lentiviral infection efficiency, resulting in variable levels of APP expression. In contrast, cortical neurons derived from Tg2576 provide constant APP expression. However, neuronal yield is generally much lower, since only half the pups will contain the transgene when heterozygote crossbreeds were conducted. Therefore, Initial characterization experiments were performed using cortical neurons infected with Lenti-APPsw.
Lenti-APPsw infected primary cortical neurons were used for the initial round of physiological experiments. Primary cortical neurons were harvested from wild-type P0 pups using established protocols.
The Lenti-APPsw vector was co-transfected into HEK293 T cells with ViraPower packaging mix (Invitrogen) to generate the lentivirus. Lentiviral-mediated transduction of APPsw in primary neurons was performed by adding neuron primary culture media containing the lentiviral particles to wild-type DIV-14 primary neurons (FIG. 11). After 24 hours, neurons were incubated with media for 72 hours prior to collecting for Aβ40 measurement. Two batches of virus (LV-1 and LV-2) were tested, showing that there is batch-to-batch variation in the viral titer.
Using this experimental paradigm, CU-264 was tested at 10 and 2 μM concentrations to examine the sAPPβ- and Aβ-lowering activity of the compound. The protocol was modified slightly to allow for 24-hour compound treatment. DIV-14 wild-type primary neurons (FIG. 12) cultured on 6-well plates were incubated for 24 hours with primary culture media containing lentiviral particles. After infection, fresh media was mixed in a 1:1 ratio with conditioned media collected prior to lentiviral infection, and applied to the cells for 48 hours to allow for APP expression. […]

T1 sequence (P56817 46-501): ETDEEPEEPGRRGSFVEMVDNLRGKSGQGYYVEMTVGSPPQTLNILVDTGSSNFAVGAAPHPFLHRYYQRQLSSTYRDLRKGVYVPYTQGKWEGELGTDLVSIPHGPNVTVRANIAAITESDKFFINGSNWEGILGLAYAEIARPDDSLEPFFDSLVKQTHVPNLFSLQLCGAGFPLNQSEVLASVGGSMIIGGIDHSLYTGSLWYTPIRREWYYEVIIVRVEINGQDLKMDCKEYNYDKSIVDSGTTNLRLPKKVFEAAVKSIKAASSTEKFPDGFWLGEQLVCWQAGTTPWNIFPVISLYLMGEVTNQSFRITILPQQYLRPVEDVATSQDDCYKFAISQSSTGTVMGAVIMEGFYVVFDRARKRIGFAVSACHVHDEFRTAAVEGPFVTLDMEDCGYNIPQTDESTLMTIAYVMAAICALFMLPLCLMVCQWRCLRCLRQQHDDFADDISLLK

Compound	IC50 [1] [µM]	further results
O=S(=O)(Nc1cc(Br)cc2cccnc12)c1cccc2ccccc12 [CU-138]	9.51	
COc1ccc(S(=O)(=O)Nc2cccc3ccc(C)nc23)c(N)c1 [CU-278]	11.5	
O=S(=O)(Nc1cccc2cccnc12)c1ccc2ccccc2c1 [CU-155]	2.2	
Nc1cc(C(F)(F)F)ccc1S(=O)(=O)Nc1cccc2cccnc12 [CU-264]	0.53	potency for sAPPβ reduction (in words) [1]: most potent analog; also recorded: sub-micromolar; also recorded: most potent compound; Aβ40 levels in more physiological assay [2]: raising; sAPPβ levels in more physiological assay [2]: raising; Aβ40 levels in primary neurons ([2]; 2 μM CU-264, 24-hour treatment): does not reduce; Aβ levels in primary neurons ([2]; 10 μM, 24-hour treatment): increased; Aβ40 in primary neurons ([2]; tested at 10 and 2 μM, 24-hour treatment): did not reduce
COc1cc(NS(=O)(=O)c2ccc3ccccc3c2)c2ncccc2c1 [CU-294]	3.75	
COc1cc(NS(=O)(=O)c2cccc3ccccc23)c2ncccc2c1 [CU-295]	3.63	
O=S(=O)(Nc1cccc2cccnc12)c1cccs1 [CU-150]	8.03	
O=S(=O)(Nc1cc(Br)cc2cccnc12)c1cccc2cccnc12 [CU-168]	17.2	
Cc1ccc2cccc(NS(=O)(=O)c3ccccc3N)c2n1 [CU-274]	11.1	
COc1ccc(S(=O)(=O)Nc2cccc3cccnc23)c([N+](=O)[O-])c1 [CU-261]	1.92	
Cc1ccc2cccc(NS(=O)(=O)c3ccc(C(F)(F)F)cc3N)c2n1 [CU-281]	3.28	
O=S(=O)(Nc1cccc2cccnc12)c1cccc2cccnc12 [CU-156]	4.23	
Cc1ccc2cccc(NS(=O)(=O)c3ccccc3[N+](=O)[O-])c2n1 [CU-273]	12.4	
O=[N+]([O-])c1cc(C(F)(F)F)ccc1S(=O)(=O)Nc1cccc2cccnc12 [CU-265]	2.95	
O=[N+]([O-])c1ccccc1S(=O)(=O)Nc1cccc2cccnc12 [CU-153]	1.58	
COc1ccc(S(=O)(=O)Nc2cccc3cccnc23)cc1 [CU-151]	5.92	
O=S1(=O)Nc2c(ccc3cccnc23)-c2cc(C(F)(F)F)ccc21 [CU-262]	0.82	potency for sAPPβ reduction (in words) [1]: sub-micromolar
O=S(=O)(Nc1cc(Br)cc2cccnc12)c1ccccc1 [CU-166]	13.4	
COc1ccc(S(=O)(=O)Nc2cccc3cccnc23)c(N)c1 [CU-271]	2.74	
Cc1ccc2ccc3c(c2n1)NS(=O)(=O)c1ccc(C(F)(F)F)cc1-3 [CU-282]	1.11	
O=S(=O)(Nc1cccc2cccnc12)c1cccc2ccccc12 [CU-131]	6.46	
O=[N+]([O-])c1ccc(S(=O)(=O)Nc2cccc3cccnc23)cc1 [CU-152]	4.63	
Cc1ccc(S(=O)(=O)Nc2cccc3ccc(C)nc23)cc1 [CU-225]	3.79	
Cc1ccc(S(=O)(=O)Nc2cc(Br)cc3cccnc23)cc1 [CU-167]	1.09	
Cc1ccc2cccc(NS(=O)(=O)c3ccc(C(F)(F)F)cc3[N+](=O)[O-])c2n1 [CU-280]	5.51	
Nc1ccccc1S(=O)(=O)Nc1cccc2cccnc12 [CU-242]	3.82	
COc1cc(NS(=O)(=O)c2ccccc2[N+](=O)[O-])c2ncccc2c1 [CU-268]	8.11	

Reference: patent US8685963B2, “Compounds that inhibit NFκB and BACE1 activity” (The Trustees of Columbia University in the city of New York, priority 2008, dated 2014)
